Patent US8278293B2, “Diazo bicyclic Smac mimetics and the uses thereof” (The Regents of the University of Michigan, priority 2007, dated 2012)
Read-outs that look alike come from different tables or passages of the source.

How the values were obtained:
[1] = system: MDA-MB-231 human breast cancer cell line; experiment: Cell growth inhibition, WST-8 assay, MDA-MB-231; type: cell-based
Protocol: (§1) The effect of the compounds of the present invention on the growth of various cancer cell lines was tested. Cells were seeded in 96-well flat bottom cell culture plates at a density of 3000 cells/well with a tested compound and incubated at 37° C. in an atmosphere of 95% air and 5% CO2 for 4 days. […] Dojindo Molecular Technologies, Inc., Gaithersburg, Md.). […] The absorbance of the samples was measured at 450 nm using a ULTRA Tecan Reader (Molecular Device). […] The ability of SM-406 to inhibit cell growth as a single agent was tested in the MDA-MB-231 breast cancer cell line, SK-OV-3 and OVCAR-4 ovarian cancer cell lines and SK-MeI-2 melanoma cancer cell line. Cells were treated for 4 days. Cell growth was determined using a WST-based assay.

[2] = system: SK-OV-3 ovarian cancer cell line; experiment: Cell growth inhibition, WST-8 assay, SK-OV-3; type: cell-based; conditions: for IC50: 4 days, WST-8, read-out: SK-OV-3 IC50
Protocol: as §1

[3] = target: XIAP BIR3 (Homo sapiens, UniProt P98170); experiment: Fluorescence polarization (FP) based competitive binding assay to XIAP BIR3; design: human XIAP (residues 241-356) fused to His-tag; His-tag; conditions: for IC50: FP binding, XIAP BIR3 30 nM, SM5F 5 nM
[4] = Homo sapiens, MDA-MB-231, 96 h, 4 days, WST-8, read-out: MDA-MB-231 IC50
[5] = Homo sapiens, MDA-MB-231, 96 h, read-out: MDA-MB-231 IC50 (μM)

XIAP BIR3, sequence (P98170 241-356): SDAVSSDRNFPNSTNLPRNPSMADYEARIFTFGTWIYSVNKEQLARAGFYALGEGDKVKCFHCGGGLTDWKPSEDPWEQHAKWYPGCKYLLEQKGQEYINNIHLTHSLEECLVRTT

SMILES | IC50 [1, 4] | IC50 ([2]; Homo sapiens, SK-OV-3, 96 h) | IC50 [3] | further results
CN[C@@H](C)C(=O)N[C@H]1CN(C(=O)CC(C)C)CC[C@H]2CC[C@@H](C(=O)NCC(c3ccccc3)c3ccccc3)N2C1=O [SM-432] | < 10 µM | < 10 µM | < 1 µM | 
CN[C@@H](C)C(=O)N[C@H]1CN(C(=O)C[C@@H]2CCOC2)CC[C@H]2CC[C@@H](C(=O)NC(c3ccccc3)c3ccccc3)N2C1=O [SM-419] | < 10 µM | < 10 µM | < 1 µM | 
CN[C@@H](C)C(=O)N[C@H]1CN(C(=O)CC(C)C)CC[C@H]2CC[C@@H](C(=O)NCc3ccccc3-c3ccccc3)N2C1=O [SM-433] | < 10 µM | < 10 µM | < 1 µM | 
CN[C@@H](C)C(=O)N[C@H]1CN(C(C)=O)CC[C@H]2CCC(C(=O)NC(c3ccccc3)c3ccccc3)N2C1=O (some centres unmarked) [SM-330] |  |  |  | IC50 [1, 5]: < 1 µM
CN[C@@H](C)C(=O)N[C@H]1CN(C(=O)CC(C)C)CC[C@H]2CC[C@@H](CN(Cc3ccccc3)C(C)=O)N2C1=O [SM-230] | < 100 µM | < 100 µM | < 10 µM | 
CN[C@@H](C)C(=O)N[C@H]1CN(C(=O)CCn2ccnc2)CC[C@H]2CC[C@@H](C(=O)NC(c3ccccc3)c3ccccc3)N2C1=O [SM-414] | < 100 µM | < 100 µM | < 1 µM | 
CN[C@@H](C)C(=O)N[C@H]1CN(C(=O)CN2CCNC(=O)C2)CC[C@H]2CC[C@@H](C(=O)NC(c3ccccc3)c3ccccc3)N2C1=O [SM-412] | > 1 µM | > 1 µM | < 10 µM | 
CN[C@@H](C)C(=O)N[C@H]1CN(C(=O)CC(C)C)CC[C@H]2CC[C@@H](C(=O)NCc3ccc(C(F)(F)F)cc3)N2C1=O [SM-426] | < 10 µM | < 10 µM | < 10 µM | 
CN[C@@H](C)C(=O)N[C@H]1CN(C(=O)C[C@H]2CC[C@H](O)C2)CC[C@H]2CC[C@@H](C(=O)NC(c3ccccc3)c3ccccc3)N2C1=O [SM-416] | < 10 µM | < 10 µM | < 1 µM | 
CN[C@@H](C)C(=O)N[C@H]1CN(C(=O)Cc2ccccc2)CCC[C@H]2CC[C@@H](C(=O)NC(c3ccccc3)c3ccccc3)N2C1=O [SM-207] |  |  | < 1 µM | IC50 ([1]; 4 days, WST-8, listed as SH-207, read-out: MDA-MB-231 IC50): < 1 µM; IC50 ([1]; 4 days, WST-8, read-out: MDA-MB-231 IC50): < 10 µM; IC50 ([2]; listed as SH-207): < 1 µM; IC50 [2]: < 10 µM
CN[C@@H](C)C(=O)N[C@H]1CN(C(=O)CC(C)C)CC[C@H]2CC[C@@H](C(=O)NCc3cccc(-c4ccccc4)c3)N2C1=O [SM-429] | < 10 µM | < 10 µM | < 1 µM | 
CN[C@@H](C)C(=O)N[C@H]1CN(C(=O)CC(C)C)CC[C@H]2CC[C@@H](C(=O)NCc3ccc(-c4ccccc4)cc3)N2C1=O [SM-434] | < 10 µM | < 10 µM | < 10 µM | 
CN[C@@H](C)C(=O)N[C@H]1CN(C(=O)CC(C)C)CC[C@H]2CC[C@@H](C(=O)NC3CCCCC3)N2C1=O [SM-423] | < 100 µM | < 100 µM | < 10 µM | 
CN[C@@H](C)C(=O)N[C@H]1CN(C(=O)CC(C)C)CC[C@H]2CC[C@@H](C(=O)N[C@H]3CCc4ccccc43)N2C1=O [SM-425] | < 10 µM | < 10 µM | < 1 µM | 
CN[C@@H](C)C(=O)N[C@H]1CN(C(=O)C(C)C)CC[C@H]2CC[C@@H](C(=O)NC(c3ccc(F)cc3)c3ccc(F)cc3)N2C1=O [SM-209] | < 10 µM | < 10 µM | < 1 µM | 
CN[C@@H](C)C(=O)N[C@H]1CN(C(=O)CC(C)C)CC[C@H]2CC[C@@H](C(=O)NCc3cccc4ccccc34)N2C1=O [SM-430] | < 10 µM | < 10 µM | < 1 µM | 
CC[C@H](NC)C(=O)N[C@H]1CN(C(=O)CC(C)C)CC[C@H]2CC[C@@H](C(=O)NC(c3ccccc3)c3ccccc3)N2C1=O [SM-212] | < 10 µM | < 10 µM | < 1 µM | 
CN[C@@H](C)C(=O)N[C@H]1CN(Cc2ccccc2)CC[C@H]2CC[C@@H](C(=O)NC(c3ccccc3)c3ccccc3)N2C1=O [YP-246P] |  |  |  | IC50 [1, 5]: > 1 µM; cellular activity in MDA-MB-231 compared with SM-122 ([1]; relative to SM-122): less than that of SM-122; cellular activity in SK-OV-3 compared with SM-122 ([2]; relative to SM-122): less than that of SM-122; binding affinity to XIAP BIR3 compared with SM-122 ([3]; relative to carbocyclic analog SM-122): less than that of SM-122
CN[C@@H](C)C(=O)N[C@H]1CN(C(=O)[C@H]2CC[C@H](O)C2)CC[C@H]2CC[C@@H](C(=O)NC(c3ccccc3)c3ccccc3)N2C1=O [SM-418] | < 10 µM | < 10 µM | < 1 µM | 
CN[C@@H](C)C(=O)N[C@H]1CN(C(=O)C[C@@H](O)C(=O)O)CC[C@H]2CC[C@@H](C(=O)NC(c3ccccc3)c3ccccc3)N2C1=O [SM-413] | < 100 µM | < 100 µM | < 1 µM | 
CC(C)CC(=O)N1CC[C@H]2CC[C@@H](C(=O)NC(c3ccccc3)c3ccccc3)N2C(=O)[C@@H](NC(=O)[C@H](C)NCCO)C1 [SM-213] | < 10 µM | < 10 µM | < 1 µM | 

More lines, main results first:

IC50 [1, 4] | IC50 ([2]; Homo sapiens, SK-OV-3, 96 h) | IC50 [3] | SMILES | further results
< 10 µM | < 10 µM |  | CN[C@@H](C)C(=O)N[C@H]1CNCC[C@H]2CC[C@@H](C(=O)NC(c3ccccc3)c3ccccc3)N2C1=O [SM-227] | 
< 10 µM | < 10 µM | < 1 µM | CCCN[C@@H](C)C(=O)N[C@H]1CN(C(=O)CC(C)C)CC[C@H]2CC[C@@H](C(=O)NC(c3ccccc3)c3ccccc3)N2C1=O [SM-211] | 
< 1 µM | < 1 µM | < 1 µM | CN[C@@H](C)C(=O)N[C@H]1CN(C(=O)CCc2ccc(F)cc2)CC[C@H]2CC[C@@H](C(=O)NC(c3ccccc3)c3ccccc3)N2C1=O [SM-407] | 
< 1 µM | < 1 µM | < 1 µM | CN[C@@H](C)C(=O)N[C@H]1CN(C(=O)Cc2ccccc2)CC[C@H]2CC[C@@H](C(=O)NC(c3ccc(F)cc3)c3ccc(F)cc3)N2C1=O [SM-403] | 
< 1 µM | < 1 µM | < 1 µM | CN[C@@H](C)C(=O)N[C@H]1CN(C(=O)Cc2ccc(F)cc2)CC[C@H]2CCC(C(=O)NC(c3ccccc3)c3ccccc3)N2C1=O (some centres unmarked) [SM-350] | 
< 1 µM | < 1 µM | < 1 µM | CN[C@@H](C)C(=O)N[C@H]1CN(C(=O)CCC(C)C)CC[C@H]2CC[C@@H](C(=O)NC(c3ccccc3)c3ccccc3)N2C1=O [SM-420] | 
< 1 µM | < 1 µM | < 1 µM | CCCC(=O)N1CC[C@H]2CC[C@@H](C(=O)NC(c3ccccc3)c3ccccc3)N2C(=O)[C@@H](NC(=O)[C@H](C)NC)C1 [SM-409] | 
< 1 µM | < 1 µM | < 1 µM | CN[C@@H](C)C(=O)N[C@H]1CN(C(=O)Cc2ccccc2)CC[C@H]2CC[C@@H](C(=O)NCc3ccc(F)cc3)N2C1=O [SM-401] | 
< 1 µM | < 1 µM | < 1 µM | CN[C@@H](C)C(=O)N[C@H]1CN(C(=O)CC(C)C)CC[C@H]2CC[C@@H](C(=O)NC(c3ccc(F)cc3)c3ccc(F)cc3)N2C1=O [SM-210] | 
< 1 µM | < 1 µM | < 1 µM | CN[C@@H](C)C(=O)N[C@H]1CN(C(=O)Cc2ccc(F)cc2)CC[C@H]2CC[C@@H](C(=O)NCc3ccc(F)cc3)N2C1=O [SM-402] | 
< 1 µM | < 1 µM | < 1 µM | CN[C@@H](C)C(=O)N[C@H]1CN(C(=O)CC(C)C)CC[C@H]2CC[C@@H](C(=O)N[C@@H]3CCCc4ccccc43)N2C1=O [SM-427] | 
< 1 µM | < 1 µM | < 1 µM | CN[C@@H](C)C(=O)N[C@H]1CN(C(=O)CCCc2ccccc2)CC[C@H]2CC[C@@H](C(=O)NC(c3ccccc3)c3ccccc3)N2C1=O [SM-421] | 
< 1 µM | < 1 µM | < 0.1 µM | CN[C@@H](C)C(=O)N[C@H]1CN(C(=O)Cc2ccc(F)cc2)CC[C@H]2CC[C@@H](C(=O)NC3CCCc4ccccc43)N2C1=O (some centres unmarked) [SM-377] | 
< 1 µM | < 1 µM | < 1 µM | CN[C@@H](C)C(=O)N[C@H]1CN(C(=O)CCCC(C)C)CC[C@H]2CC[C@@H](C(=O)NC(c3ccccc3)c3ccccc3)N2C1=O [SM-422] | 
< 1 µM | < 1 µM | < 0.1 µM | CN[C@@H](C)C(=O)N[C@H]1CN(C(=O)Cc2ccccc2)CC[C@H]2CC[C@@H](C(=O)NC3CCCc4ccccc43)N2C1=O (some centres unmarked) [SM-376] | 
< 1 µM | < 1 µM | < 1 µM | CN[C@@H](C)C(=O)N[C@H]1CN(C(=O)CCc2ccc(F)cc2)CC[C@H]2CC[C@@H](C(=O)NC(c3ccc(F)cc3)c3ccc(F)cc3)N2C1=O [SM-404] | 
< 1 µM | < 1 µM | < 1 µM | CN[C@@H](C)C(=O)N[C@H]1CN(C(=O)CC(C)C)CC[C@H]2CC[C@@H](C(=O)NC3CCc4ccccc43)N2C1=O (some centres unmarked) [SM-431] | 
< 1 µM |  | < 1 µM | CN[C@@H](C)C(=O)N[C@H]1CN(C(=O)Cc2ccc(F)cc2F)CC[C@H]2CCC(C(=O)NC(c3ccccc3)c3ccccc3)N2C1=O (some centres unmarked) [SM-356] | 
< 1 µM | < 1 µM | < 1 µM | CN[C@@H](C)C(=O)N[C@H]1CN(C(=O)CCc2ccccc2)CC[C@H]2CC[C@@H](C(=O)NC(c3ccccc3)c3ccccc3)N2C1=O [SM-408] | 
